Starred links: 1 amine or outer side, 2 acyl side, 3 side chain; linkers in the order of their positions; H or OH if unused. Positions of bridges follow the written chain, without caps; N, C: chain ends. Residues, ends and D or L forms follow the SMILES beside them. *: point of attachment. C18 diacid = O=C(O)CCCCCCCCCCCCCCCCC(=O)*; γGlu = O=C(O)[C@H](CCC(=O)[*:2])N[*:1]; AEEA = NCCOCCOCC(=O)O
Target: T1, human natriuretic peptide receptor 2 (hNPR2) (Homo sapiens, UniProt P20594)
T1 construct: expressed in transfected cells; host or cells: HEK293 (ATCC CRL-1573), clone 35, co-transfected with pGloSensor-42F
T1 sequence (P20594 23-1047): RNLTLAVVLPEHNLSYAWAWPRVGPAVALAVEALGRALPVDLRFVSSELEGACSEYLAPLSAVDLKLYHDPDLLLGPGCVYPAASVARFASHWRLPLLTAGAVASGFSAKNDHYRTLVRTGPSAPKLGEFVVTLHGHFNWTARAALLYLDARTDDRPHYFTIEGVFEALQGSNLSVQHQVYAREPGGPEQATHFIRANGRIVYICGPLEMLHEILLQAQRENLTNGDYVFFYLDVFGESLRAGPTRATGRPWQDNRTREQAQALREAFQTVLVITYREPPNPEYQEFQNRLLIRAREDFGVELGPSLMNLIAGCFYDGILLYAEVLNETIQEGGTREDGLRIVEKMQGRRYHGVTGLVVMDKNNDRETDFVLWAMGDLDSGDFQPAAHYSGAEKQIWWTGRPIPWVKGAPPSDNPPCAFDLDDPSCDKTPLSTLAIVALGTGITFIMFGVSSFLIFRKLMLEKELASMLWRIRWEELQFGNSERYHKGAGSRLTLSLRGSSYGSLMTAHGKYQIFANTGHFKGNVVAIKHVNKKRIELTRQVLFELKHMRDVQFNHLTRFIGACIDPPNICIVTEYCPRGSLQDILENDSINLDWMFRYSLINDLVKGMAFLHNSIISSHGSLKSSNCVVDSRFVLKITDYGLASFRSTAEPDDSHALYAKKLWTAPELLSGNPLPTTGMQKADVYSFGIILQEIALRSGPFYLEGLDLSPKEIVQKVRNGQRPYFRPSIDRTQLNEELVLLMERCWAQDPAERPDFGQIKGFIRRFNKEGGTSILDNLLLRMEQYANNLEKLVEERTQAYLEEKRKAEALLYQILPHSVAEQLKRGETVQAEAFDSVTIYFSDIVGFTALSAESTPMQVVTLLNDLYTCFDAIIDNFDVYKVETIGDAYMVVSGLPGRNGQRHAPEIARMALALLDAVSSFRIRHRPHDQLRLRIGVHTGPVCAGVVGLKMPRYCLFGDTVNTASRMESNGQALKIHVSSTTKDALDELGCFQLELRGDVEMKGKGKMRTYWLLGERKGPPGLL
Test: In vitro hNPR2 activity assay (cGMP GloSensor reporter, HEK293)
Format: cell-based
Settings: for hNPR2 0% HSA. [EC50% rel CNP]: potency relative to CNP22 (0065); for EC50: 0% HSA, HEK293-hNPR2/GloSensor cells
Experimental: To evaluate the in vitro activity of CNP22 (0065; Chem. 1) and CNP compounds of the invention, they were tested for their ability to induce production of cyclic guanosine monophosphate (cGMP) in reporter cells expressing the human natriuretic peptide receptor 2 (hNPR2).
Cell culture: To produce the reporter cell line, HEK293 (ATCC® CRL-1573™) cells were stably transfected with the pGloSensor-42F reporter plasmid (GloSensor cGMP reporter—luciferase, Promega) and an expression plasmid encoding the hNPR2 receptor. A single cell clone was isolated for the reporter cell line. When reporter cells are exposed to an hNPR2 activating compound, hNPR2 cause production of cGMP. […] Active GloSensor luciferase is able to convert luciferin to oxyluciferin, a process that produces bioluminescence. Upon cell lysis and supply of luciferase substrate, luciferase activity can be quantified by detection of luminescence. Therefore, addition of an hNPR2 activating compound and subsequent addition of detection reagent to reporter cells causes generation of luminescence in a dose dependent manner. […] This measure, also referred to as in vitro potency, is reported for all compounds tested. In all the in vitro activity experiments, CNP22 was used as a positive in-plate control for hNPR2 activation. To reduce inter-assay variation, we also report the potency of each compound relative to the potency of the CNP22 control on each plate.
Procedure: HEK293-hNPR2/GloSensor clone 35 cells were continuously cultured in selection medium (DMEM containing 10% FCS, 1% P/S, 200 μg/mL G418 and 100 μg/mL hygromycin). To perform the assay, cells were detached with TrypLE Express (Gibco #12604013), put through a 70 μm cell strainer, counted and seeded in 30 μL/well assay medium (DMEM without phenol red and with 1% P/S) at 10,000 cells/well in white 384-well plates (Perkin Elmer #6007680) overnight. The following day, test compounds were serial diluted in dilution medium (DMEM without phenol red containing 1% OVA (Sigma #A5505 lot 04M7001V), 0.01% Tween20 (Roche #33766700) and 1% P/S) and 10 μL/well of diluted test compounds were subsequently added to the cells. For each compound, ten different concentrations in the range 0.25 μM-10 μM were tested. After 30 min of incubation at 37° C. and 5% CO2, 40 μL/well Bright-Glo detection reagent (Promega #E2650) was added. […] To determine the in vitro potency or EC50 of each test compound, a four parameter logistic regression was done on the raw data for each test compound using the Python package SciPy optimize. The average EC50 values are listed as “hNPR2 0% HSA. [EC50 (nM)]” in Table 2. A relative potency was calculated by the following expression: EC50 (CNP22 in-plate control)/EC50 (test compound)*100, shown as “hNPR2 0% HSA. [EC50% rel CNP]” in Table 2. A minimum of two replicates was measured for each test compound.

Row | SMILES | hNPR2 0% HSA. [EC50% rel CNP] [%] | EC50 [nM]
1 | CC[C@H](C)[C@@H]1NC(=O)[C@H](CCCNC(=N)N)NC(=O)[C@H](CC(=O)O)NC(=O)[C@H](CC(C)C)NC(=O)[C@@H]2CCCN2C(=O)[C@H](CC(C)C)NC(=O)CNC(=O)[C@H](Cc2ccccc2)NC(=O)[C@@H](NC(=O)CNC(=O)[C@H](CCCCN)NC(=O)[C@H](CO)NC(=O)[C@H](CC(C)C)NC(=O)CNC(=O)[C@H](CCCCN)NC(=O)[C@H](CCC(=O)O)NC(=O)[C@H](CCC(N)=O)NC(=O)[C@H](C)NC(=O)CNC(=O)[C@H](CCC(=O)O)NC(=O)[C@H](Cc2ccc(O)cc2)NC(=O)COCCOCCNC(=O)COCCOCCNC(=O)CC[C@H](NC(=O)CCCCCCCCCCCCCCCCC(=O)O)C(=O)O)CSSC[C@@H](C(=O)O)NC(=O)CNC(=O)[C@H](CC(C)C)NC(=O)CNC(=O)[C@H](CO)NC(=O)[C@H](CC(C)C)NC(=O)[C@H](CO)NC(=O)CNC1=O [compound 1226] ({C18 diacid-γGlu-AEEA-AEEA}-YEGAQEKGLSKGCFGLPLDRIGSLSGLGC-OH; disulfide 13-29) | 7.5 | 
2 | CC[C@H](C)[C@@H]1NC(=O)[C@H](CCCNC(=N)N)NC(=O)[C@H](CC(=O)O)NC(=O)[C@H](CC(C)C)NC(=O)[C@@H]2CCCN2C(=O)[C@H](CC(C)C)NC(=O)CNC(=O)[C@H](Cc2ccccc2)NC(=O)[C@@H](NC(=O)CNC(=O)[C@H](CO)NC(=O)[C@H](CO)NC(=O)[C@H](CC(C)C)NC(=O)CNC(=O)[C@H](CCCCN)NC(=O)[C@H](CCC(=O)O)NC(=O)[C@H](CCC(N)=O)NC(=O)[C@H](C)NC(=O)CNC(=O)[C@H](CCC(=O)O)NC(=O)[C@H](Cc2ccc(O)cc2)NC(=O)COCCOCCNC(=O)COCCOCCNC(=O)CC[C@H](NC(=O)CCCCCCCCCCCCCCCCC(=O)O)C(=O)O)CSSC[C@@H](C(=O)O)NC(=O)CNC(=O)[C@H](CC(C)C)NC(=O)CNC(=O)[C@H](CO)NC(=O)[C@H](CC(C)C)NC(=O)[C@H](CO)NC(=O)CNC1=O [compound 1228] ({C18 diacid-γGlu-AEEA-AEEA}-YEGAQEKGLSSGCFGLPLDRIGSLSGLGC-OH; disulfide 13-29) | 12.3 | 
3 | CC[C@H](C)[C@@H]1NC(=O)[C@H](CCCNC(=N)N)NC(=O)[C@H](CC(=O)O)NC(=O)[C@H](CC(C)C)NC(=O)[C@H](CCCCN)NC(=O)[C@H](CC(C)C)NC(=O)CNC(=O)[C@H](Cc2ccccc2)NC(=O)[C@@H](NC(=O)CNC(=O)[C@H](CCCCN)NC(=O)[C@H](CO)NC(=O)[C@H](CC(C)C)NC(=O)CNC(=O)[C@H](CCCCN)NC(=O)[C@H](CCC(=O)O)NC(=O)[C@H](CCC(N)=O)NC(=O)[C@H](C)NC(=O)CNC(=O)[C@H](CCCCN)NC(=O)[C@H](CCC(=O)O)NC(=O)COCCOCCNC(=O)COCCOCCNC(=O)CC[C@H](NC(=O)CCCCCCCCCCCCCCCCC(=O)O)C(=O)O)CSSC[C@@H](C(=O)O)NC(=O)CNC(=O)[C@H](CC(C)C)NC(=O)CNC(=O)[C@H](CO)NC(=O)[C@H](CC(C)C)NC(=O)[C@H](CO)NC(=O)CNC1=O [compound 1229] ({C18 diacid-γGlu-AEEA-AEEA}-EKGAQEKGLSKGCFGLKLDRIGSLSGLGC-OH; disulfide 13-29) | 5.3 | 4.44
4 | CC[C@H](C)[C@@H]1NC(=O)[C@H](CCCNC(=N)N)NC(=O)[C@H](CC(=O)O)NC(=O)[C@H](CC(C)C)NC(=O)[C@H](CCCCN)NC(=O)[C@H](CC(C)C)NC(=O)CNC(=O)[C@H](Cc2ccccc2)NC(=O)[C@@H](NC(=O)CNC(=O)[C@H](CO)NC(=O)[C@H](CO)NC(=O)[C@H](CC(C)C)NC(=O)CNC(=O)[C@H](CCCCN)NC(=O)[C@H](CCC(=O)O)NC(=O)[C@H](CCC(N)=O)NC(=O)[C@H](C)NC(=O)CNC(=O)[C@H](CCCCN)NC(=O)[C@H](CCC(=O)O)NC(=O)COCCOCCNC(=O)COCCOCCNC(=O)CC[C@H](NC(=O)CCCCCCCCCCCCCCCCC(=O)O)C(=O)O)CSSC[C@@H](C(=O)O)NC(=O)CNC(=O)[C@H](CC(C)C)NC(=O)CNC(=O)[C@H](CO)NC(=O)[C@H](CC(C)C)NC(=O)[C@H](CO)NC(=O)CNC1=O [compound 1230] ({C18 diacid-γGlu-AEEA-AEEA}-EKGAQEKGLSSGCFGLKLDRIGSLSGLGC-OH; disulfide 13-29) | 4.2 | 6.98
5 | CC[C@H](C)[C@@H]1NC(=O)[C@H](CCCNC(=N)N)NC(=O)[C@H](CC(=O)O)NC(=O)[C@H](CC(C)C)NC(=O)[C@H](CCCCN)NC(=O)[C@H](CC(C)C)NC(=O)CNC(=O)[C@H](Cc2ccccc2)NC(=O)[C@@H](NC(=O)CNC(=O)[C@H](CCCCN)NC(=O)[C@H](CO)NC(=O)[C@H](CC(C)C)NC(=O)CNC(=O)[C@H](CCCCN)NC(=O)[C@H](CCC(=O)O)NC(=O)[C@H](CCC(N)=O)NC(=O)[C@H](C)NC(=O)CNC(=O)[C@H](CCC(N)=O)NC(=O)[C@H](CCC(=O)O)NC(=O)COCCOCCNC(=O)COCCOCCNC(=O)CC[C@H](NC(=O)CCCCCCCCCCCCCCCCC(=O)O)C(=O)O)CSSC[C@@H](C(=O)O)NC(=O)CNC(=O)[C@H](CC(C)C)NC(=O)CNC(=O)[C@H](CO)NC(=O)[C@H](CC(C)C)NC(=O)[C@H](CO)NC(=O)CNC1=O [compound 1231] ({C18 diacid-γGlu-AEEA-AEEA}-EQGAQEKGLSKGCFGLKLDRIGSLSGLGC-OH; disulfide 13-29) | 4.1 | 5.62
6 | CC[C@H](C)[C@@H]1NC(=O)[C@H](CCCNC(=N)N)NC(=O)[C@H](CC(=O)O)NC(=O)[C@H](CC(C)C)NC(=O)[C@H](CCCCN)NC(=O)[C@H](CC(C)C)NC(=O)CNC(=O)[C@H](Cc2ccccc2)NC(=O)[C@@H](NC(=O)CNC(=O)[C@H](CCCCN)NC(=O)[C@H](CO)NC(=O)[C@H](CC(C)C)NC(=O)CNC(=O)[C@H](CCCCN)NC(=O)[C@H](CCC(=O)O)NC(=O)[C@H](CCC(N)=O)NC(=O)[C@H](C)NC(=O)CNC(=O)[C@H](CCCCN)NC(=O)[C@H](Cc2ccc(O)cc2)NC(=O)COCCOCCNC(=O)COCCOCCNC(=O)CC[C@H](NC(=O)CCCCCCCCCCCCCCCCC(=O)O)C(=O)O)CSSC[C@@H](C(=O)O)NC(=O)CNC(=O)[C@H](CC(C)C)NC(=O)CNC(=O)[C@H](CO)NC(=O)[C@H](CC(C)C)NC(=O)[C@H](CO)NC(=O)CNC1=O [compound 1232] ({C18 diacid-γGlu-AEEA-AEEA}-YKGAQEKGLSKGCFGLKLDRIGSLSGLGC-OH; disulfide 13-29; C-terminus assumed) | 16.0 | 1.63
